# Like-named read-outs stand apart in the source and are kept apart here.
# Test system: RSV (Long)
# Test: RSV cytopathic effect (CPE)-based viral replication assay
# Type: cell-based, respiratory syncytial virus (RSV)
# Conditions: read-out: EC50 (nm)
# Protocol: Example A: RSV Cytopathic Effect
# Compounds of the invention are initially tested in a cytopathic effect (CPE)-based viral replication assay using immortalized cells and a laboratory strain of RSV (Long). This assay evaluates the ability of a compound to inhibit viral replication.
# Assay plates are prepared by seeding 2,500 HEp-2 cells (ATCC) per well of a 384-well black clear-bottom plate (Greiner Bio-One) in 20 μL of assay media (defined as DMEM supplemented with 2% heat-inactivated fetal bovine serum and 1% Penicillin/Streptomycin). Assay plates are incubated overnight at 37° C. in an incubator containing 5% CO2. The following day, a 10-point serial dilution of test compound is prepared in DMSO. Compounds are subsequently diluted with assay media and 20 μL of diluted compound (containing 1.5% DMSO) is transferred to an assay plate for evaluation of antiviral activity.
# For the CPE assay, cells are infected at a Multiplicity of Infection (MOI) of 0.015 using 20 μL of RSV Long (ATCC) diluted in assay media. The DMSO concentration is constant throughout the assay plate, including the negative and positive controls. The assay plate is incubated for 3 days at 37° C. in an incubator containing 5% CO2. Cell viability is evaluated with the addition of 10 μL of CellTiter-Glo (ProMega). Luminescence is measured using an EnVision plate reader (Perkin Elmer). EC50 values are calculated using the raw data from the CPE assays.
# [1] = human respiratory syncytial virus, HEp-2, 72 h, HEp-2 cells infected with RSV Long at MOI 0.015, 3 days at 37° C., cell viability by CellTiter-Glo luminescence
EC50 [1],Structure (SMILES),further results
40 nM,NC1(C(=O)N2CCC3(CC2)C(=O)N(Cc2ncc4ccccc4c2-c2cnco2)c2cnccc23)CC1 [Example 2043],–
17 nM,NCc1ccc2c(CCCCO)c(Cn3c(=O)n(C4CC4)c4ccccc43)ncc2c1 [Example 27],–
–,O=C1CC(c2c(Cn3c(=O)n(C4CC4)c4ccncc43)ncc3ccccc23)CN1 (centres unmarked) [Example 2019],"EC50 (HEp-2 cells infected with RSV Long at MOI 0.015, 3 days at 37° C., cell viability by CellTiter-Glo luminescence): 15 nM"
27 nM,NC(=O)c1ccc(-c2c(CN3C(=O)C4(CCN(C(=O)[C@@H]5CCCN5)CC4)c4ccncc43)ncc3ccccc23)cn1 [Example 2033],–
5.9 nM,"NCc1ccc2c(CCCCO)c(Cn3c(=O)n(C4CC4)c4ccncc43)ncc2c1 [Example 26, 3-((7-(Aminomethyl)-4-(4-hydroxybutyl)isoquinolin-3-yl)methyl)-1-cyclopropyl-1H-imidazo[4,5-c]pyridin-2(3H)-one]",–
3.4 nM,"CNC(=O)O[C@H]1C[C@@]2(C1)C(=O)N(Cc1ncc3ccccc3c1-c1ccc(C#N)nc1)c1ccccc12 [Example 133, (1R,3R)-1′-((4-(6-cyanopyridin-3-yl)isoquinolin-3-yl)methyl)-2′-oxospiro[cyclobutane-1,3′-indolin]-3-yl methylcarbamate]",–
2 nM,"COC(=O)N1CCC(n2c(=O)n(Cc3ncc4ccccc4c3CCCCO)c3cnccc32)CC1 [Example 2d, Methyl 4-(3-((4-(4-hydroxybutyl)isoquinolin-3-yl)methyl)-2-oxo-2,3-dihydro-1H-imidazo[4,5-c]pyridin-1-yl)piperidine-1-carboxylate]",–
33 nM,"O=c1n(Cc2ncc3ccccc3c2CCCCO)c2cnccc2n1C1CN(S(=O)(=O)C2CC2)C1 [Example 34, 1-(1-(cyclopropylsulfonyl)azetidin-3-yl)-3-((4-(4-hydroxybutyl)isoquinolin-3-yl)methyl)-1H-imidazo[4,5-c]pyridin-2(3H)-one]",–
7.8 nM,"CS(=O)(=O)N1CCC2(CC1)C(=O)N(Cc1ncc3ccccc3c1-c1cnco1)c1cnccc12 [Example 159b, 1-(methylsulfonyl)-1′-((4-(oxazol-5-yl)isoquinolin-3-yl)methyl)spiro[piperidine-4,3′-pyrrolo[2,3-c]pyridin]-2′(1′H)-one]",–
3 nM,N#Cc1ccc(-c2c(CN3C(=O)C4(CN(C(N)=O)C4)c4ccccc43)ncc3ccccc23)cn1 [Example 77],–
1.6 nM,"NC(=O)N1CC2(C1)C(=O)N(Cc1ncc3ccccc3c1-c1cccnc1)c1ccccc12 [Example 131, 2′-Oxo-1′-((4-(pyridin-3-yl)isoquinolin-3-yl)methyl)spiro[azetidine-3,3′-indoline]-1-carboxamide]",–
22 nM,NC(c1ccc(-c2c(CN3C(=O)C4(CCN(C(=O)C5(N)CC5)CC4)c4ccncc43)ncc3ccccc23)cn1)C(F)(F)F (centres unmarked) [Example 2042],–
0.75 nM,"CS(=O)(=O)Nc1ccc(-c2c(CN3C(=O)C4(CN(C(N)=O)C4)c4ccccc43)ncc3ccccc23)cc1 [Example 117, 1′-((4-(4-(methylsulfonamido)phenyl)isoquinolin-3-yl)methyl)-2′-oxospiro[azetidine-3,3′-indoline]-1-carboxamide]",–
6.6 nM,"NCCC(=O)N1CC2(C1)C(=O)N(Cc1ncc3ccccc3c1-c1cccnc1)c1ccccc12 [Example 150, 1-(3-Aminopropanoyl)-1′-((4-(pyridin-3-yl)isoquinolin-3-yl)methyl)spiro[azetidine-3,3′-indolin]-2′-one]",–
8.5 nM,"COC(=O)N1CCC(n2c(=O)n(Cc3ncc4cc(Cl)ccc4c3CCCCO)c3cnccc32)CC1 [Example 20, Methyl 4-(3-((7-chloro-4-(4-hydroxybutyl)isoquinolin-3-yl)methyl)-2-oxo-2,3-dihydro-1H-imidazo[4,5-c]pyridin-1-yl)piperidine-1-carboxylate]",–
4 nM,NC(=O)c1ccc(-c2c(CN3C(=O)C4(CCN(C(=O)C(N)C(F)(F)F)CC4)c4ccncc43)ncc3ccccc23)cn1 (centres unmarked) [Example 2007],–
3.4 nM,"O=C(C1CCNCC1)N1CCC2(CC1)C(=O)N(Cc1ncc3ccccc3c1-c1cccnc1)c1cnccc12 [Example 140, 1-(piperidine-4-carbonyl)-1′-((4-(pyridin-3-yl)isoquinolin-3-yl)methyl)spiro[piperidine-4,3′-pyrrolo[2,3-c]pyridin]-2′(1′H)-one]",–
0.75 nM,"COC(=O)N1CC2(C1)C(=O)N(Cc1ncc3ccccc3c1-c1ccc(S(N)(=O)=O)cc1)c1ccccc12 [Example 99, Methyl 2′-oxo-1′-((4-(4-sulfamoylphenyl)isoquinolin-3-yl)methyl)spiro[azetidine-3,3′-indoline]-1-carboxylate]",–

EC50 [1],Structure (SMILES),further results
8.2 nM,NC1(C(=O)N2CCC3(CC2)C(=O)N(Cc2ncc4ccccc4c2-c2cncs2)c2cnccc23)CC1 [Example 2024],–
17 nM,"COC(=O)c1ccc(-c2c(CN3C(=O)C4(CCN(C(=O)C5(N)CC5)CC4)c4ccncc43)ncc3ccccc23)cn1 [Example 50c, Methyl 5-(3-((1-(1-aminocyclopropanecarbonyl)-2′-oxospiro[piperidine-4,3′-pyrrolo[2,3-c]pyridin]-1′(2′H)-yl)methyl)isoquinolin-4-yl)picolinate]",–
8.5 nM,"CNC1(C(=O)N2CCC3(CC2)C(=O)N(Cc2ncc4ccccc4c2-c2ccc(C(=O)N(C)C)nc2)c2cnccc23)CC1 [Example 122, N,N-dimethyl-5-(3-((1-(1-(methylamino)cyclopropanecarbonyl)-2′-oxospiro[piperidine-4,3′-pyrrolo[2,3-c]pyridin]-1′(2′H)-yl)methyl)isoquinolin-4-yl)picolinamide]",–
2.8 nM,CS(=O)(=O)N1CCC2(CC1)C(=O)N(Cc1ncc3cc(F)ccc3c1-c1ccncc1)c1cnccc12 [Example 2035],–
3.8 nM,"CC(C)(O)C(=O)N1CC2(C1)C(=O)N(Cc1ncc3ccccc3c1-c1cccnc1)c1ccccc12 [Example 118, 1-(2-hydroxy-2-methylpropanoyl)-1′-((4-(pyridin-3-yl)isoquinolin-3-yl)methyl)spiro[azetidine-3,3′-indolin]-2′-one]",–
1.4 nM,"CNC1(C(=O)N2CCC3(CC2)C(=O)N(Cc2ncc4ccccc4c2-c2ccc(F)nc2)c2cnccc23)CC1 [Example 111c, 1′-((4-(6-fluoropyridin-3-yl)isoquinolin-3-yl)methyl)-1-(1-(methylamino)cyclopropanecarbonyl)spiro[piperidine-4,3′-pyrrolo[2,3-c]pyridin-]2′(1′H)-one]",–
120 nM,NC1(C(=O)N2CCC3(CC2)C(=O)N(Cc2ncc4ccccc4c2-c2cc[nH]c2)c2cnccc23)CC1 [Example 2031],–
0.45 nM,"COC(=O)N1CC2(C1)C(=O)N(Cc1ncc3ccccc3c1-c1ccncc1)c1ccccc12 [Example 97, Methyl 2′-oxo-1′-((4-(pyridin-4-yl)isoquinolin-3-yl)methyl)spiro[azetidine-3,3′-indoline]-1-carboxylate]",–
8.2 nM,"CNC1(C(=O)N2CCC3(CC2)C(=O)N(Cc2ncc4ccccc4c2-c2ccc(C#N)nc2)c2cnccc23)CC1 [Example 67, 5-(3-((1-(1-(Methylamino)cyclopropanecarbonyl)-2′-oxospiro[piperidine-4,3′-pyrrolo[2,3-c]pyridin]-1′(2′H)-yl)methyl)isoquinolin-4-yl)picolinonitrile]",–
3 nM,NC1(CNC(=O)N2CC3(C2)C(=O)N(Cc2ncc4ccccc4c2-c2cncc(F)c2)c2ccccc23)CC1 [Example 2004],–
0.8 nM,"CS(=O)(=O)N1CCC2(CC1)C(=O)N(Cc1ncc3ccccc3c1-c1cccnc1)c1cnccc12 [Example 136, 1-(methylsulfonyl)-1′-((4-(pyridin-3-yl)isoquinolin-3-yl)methyl)spiro[piperidine-4,3′-pyrrolo[2,3-c]pyridin]-2′(1′H)-one]",–
690 nM,"O=c1n(Cc2ncc3ccccc3c2COCC(F)(F)F)c2cnccc2n1C1CC1 [Example 127, 1-Cyclopropyl-3-((4-((2,2,2-trifluoroethoxy)methyl)isoquinolin-3-yl)methyl)-1H-imidazo[4,5-c]pyridin-2(3H)-one]",–
3.4 nM,"O=c1n(Cc2ncc3ccccc3c2CCCCF)c2cnccc2n1C1CC1 [Example 57, 1-Cyclopropyl-3-((4-(4-fluorobutyl)isoquinolin-3-yl)methyl)-1H-imidazo[4,5-c]pyridin-2(3H)-one]",–
6 nM,"NC1(C(=O)N2CC3(C2)C(=O)N(Cc2ncc4ccccc4c2-c2ccc(S(N)(=O)=O)cc2)c2ccccc23)CC1 [Example 125, 4-(3-((1-(1-aminocyclopropanecarbonyl)-2′-oxospiro[azetidine-3,3′-indolin]-1′-yl)methyl)isoquinolin-4-yl)benzenesulfonamide]",–
–,"CC(=O)N1CC2(C1)C(=O)N(Cc1ncc3ccccc3c1-c1cccnc1)c1ccccc12 [Example 153, 1-acetyl-1′-((4-(pyridin-3-yl)isoquinolin-3-yl)methyl)spiro[azetidine-3,3′-indolin]-2′-one]","EC50 (human respiratory syncytial virus, HEp-2, 72 h): 5.5 nM"
2.6 nM,CS(=O)(=O)N1CCC2(CC1)C(=O)N(Cc1ncc3ccccc3c1-c1ccncc1)c1cnccc12 [Example 2014],–
0.82 nM,NCC(N1CC2(C1)C(=O)N(Cc1ncc3ccccc3c1-c1cccnc1)c1ccccc12)C(F)(F)F (centres unmarked) [Example 2037],–
